Laboratory results: US9936701B2, “Herbicidal compounds” (Syngenta Participations AG, priority 2013, dated 2018)
Each block holds one compound with its values, some of them ahead of it.

Tests used:
[1] = system: a variety of test species; assay: Post-emergence herbicidal activity (glasshouse, sprayed after 8 days cultivation, evaluated after 13 days); type: in vivo; set-up: key: 5=total damage to plant; 0=no damage to plant; details: rate 1000 g/Ha, scale 0-5
Procedure, shortened: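 Damage was rated 0-5 (5 = total) 13 days after a post-emergence spray of acetone/water (50:50) plus 0.5% Tween 20 formulation. Plants were sprayed at 8 days' growth and kept at 24/16° C, 14 h light, 65% humidity, watered twice daily.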

[2] = system: a variety of test species; assay: Pre-emergence herbicidal activity (glasshouse, sprayed one day after sowing, evaluated after 13 days); type: in vivo; set-up: key: 5=total damage to plant; 0=no damage to plant; details: application pre-emergence, rate 1000 g/Ha, scale 0-5
Procedure, shortened: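 Seeds sown in standard soil in pots, held one day in glasshouse (24/16 °C day/night, 14 h light, 65% humidity), then sprayed with aqueous solution of compound formulated in acetone/water 50:50 with 0.5% Tween 20. Grown on under same conditions, watered twice daily; damage scored after 13 days (0 = none, 5 = total).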

Structure (SMILES): COC1=C(C)C(O)N(c2cc(C(C)(C)C#N)on2)C1=O (stereo not shown) [D4]
ABUTH (Abutilon theophrasti) damage score, application post-emergence [1]: 5
ALOMY (Alopecurus myosuroides) damage score, application post-emergence [1]: 5
AMARE (Amaranthus retroflexus) damage score, application post-emergence [1]: 5
ECHCG (Echinochloa crus-galli) damage score, application post-emergence [1]: 5
SETFA (Setaria faberi) damage score, application post-emergence [1]: 5
ZEAMX (Zea mays) damage score, application post-emergence [1]: 5
melting point: 123 to 125 °C
Pre-emergence herbicidal damage score, ABUTH [2]: 5
Pre-emergence herbicidal damage score, ALOMY [2]: 4
Pre-emergence herbicidal damage score, AMARE [2]: 5
Pre-emergence herbicidal damage score, ECHCG [2]: 5
Pre-emergence herbicidal damage score, SETFA [2]: 5
Pre-emergence herbicidal damage score, ZEAMX [2]: 3

Structure (SMILES): CCC(C)(C)c1onc(N2C(=O)C(OC)=C(C)C2O)c1C#N (stereo not shown) [D5]
ABUTH (Abutilon theophrasti) damage score, application post-emergence [1]: 5
ALOMY (Alopecurus myosuroides) damage score, application post-emergence [1]: 5
AMARE (Amaranthus retroflexus) damage score, application post-emergence [1]: 5
ECHCG (Echinochloa crus-galli) damage score, application post-emergence [1]: 5
SETFA (Setaria faberi) damage score, application post-emergence [1]: 5
ZEAMX (Zea mays) damage score, application post-emergence [1]: 5
melting point: 79 to 81 °C
Pre-emergence herbicidal damage score, ABUTH [2]: 5
Pre-emergence herbicidal damage score, ALOMY [2]: 4
Pre-emergence herbicidal damage score, AMARE [2]: 5
Pre-emergence herbicidal damage score, ECHCG [2]: 5
Pre-emergence herbicidal damage score, SETFA [2]: 5
Pre-emergence herbicidal damage score, ZEAMX [2]: 2

Structure (SMILES): CCOC1=C(C)C(O)N(c2cc(C(C)(C)C#N)on2)C1=O (stereo not shown) [D6]
ABUTH (Abutilon theophrasti) damage score, application post-emergence [1]: 5
ALOMY (Alopecurus myosuroides) damage score, application post-emergence [1]: 4
AMARE (Amaranthus retroflexus) damage score, application post-emergence [1]: 5
ECHCG (Echinochloa crus-galli) damage score, application post-emergence [1]: 5
SETFA (Setaria faberi) damage score, application post-emergence [1]: 5
ZEAMX (Zea mays) damage score, application post-emergence [1]: 2
melting point: 90 to 92 °C
Pre-emergence herbicidal damage score, ABUTH [2]: 5
Pre-emergence herbicidal damage score, ALOMY [2]: 4
Pre-emergence herbicidal damage score, AMARE [2]: 5
Pre-emergence herbicidal damage score, ECHCG [2]: 5
Pre-emergence herbicidal damage score, SETFA [2]: 4
Pre-emergence herbicidal damage score, ZEAMX [2]: 3

Structure (SMILES): COC1=C(C)C(OC(C)=O)N(c2cc(C(C)(C)C)on2)C1=O (stereo not shown) [D7]
ABUTH (Abutilon theophrasti) damage score, application post-emergence [1]: 5
ALOMY (Alopecurus myosuroides) damage score, application post-emergence [1]: 4
AMARE (Amaranthus retroflexus) damage score, application post-emergence [1]: 5
ECHCG (Echinochloa crus-galli) damage score, application post-emergence [1]: 5
SETFA (Setaria faberi) damage score, application post-emergence [1]: 5
ZEAMX (Zea mays) damage score, application post-emergence [1]: 3
melting point: 118 to 124 °C
Pre-emergence herbicidal damage score, ABUTH [2]: 5
Pre-emergence herbicidal damage score, ALOMY [2]: 3
Pre-emergence herbicidal damage score, AMARE [2]: 5
Pre-emergence herbicidal damage score, ECHCG [2]: 4
Pre-emergence herbicidal damage score, SETFA [2]: 5
Pre-emergence herbicidal damage score, ZEAMX [2]: 2

Structure (SMILES): CCOC1=C(C)CN(c2cc(C(C)(C)C#N)on2)C1=O [D8]
ABUTH (Abutilon theophrasti) damage score, application post-emergence [1]: 4
ALOMY (Alopecurus myosuroides) damage score, application post-emergence [1]: 3
AMARE (Amaranthus retroflexus) damage score, application post-emergence [1]: 5
ECHCG (Echinochloa crus-galli) damage score, application post-emergence [1]: 4
SETFA (Setaria faberi) damage score, application post-emergence [1]: 3
ZEAMX (Zea mays) damage score, application post-emergence [1]: 0
melting point: 127 to 129 °C
Pre-emergence herbicidal damage score, ABUTH [2]: 3
Pre-emergence herbicidal damage score, ALOMY [2]: 2
Pre-emergence herbicidal damage score, AMARE [2]: 4
Pre-emergence herbicidal damage score, ECHCG [2]: 3
Pre-emergence herbicidal damage score, SETFA [2]: 4
Pre-emergence herbicidal damage score, ZEAMX [2]: 2

Structure (SMILES): COC1=C(C)CN(c2noc(C(C)C)c2C#N)C1=O [D10]
ABUTH (Abutilon theophrasti) damage score, application post-emergence [1]: 4
ALOMY (Alopecurus myosuroides) damage score, application post-emergence [1]: 5
AMARE (Amaranthus retroflexus) damage score, application post-emergence [1]: 5
ECHCG (Echinochloa crus-galli) damage score, application post-emergence [1]: 5
SETFA (Setaria faberi) damage score, application post-emergence [1]: 5
ZEAMX (Zea mays) damage score, application post-emergence [1]: 2
melting point: 131 to 133 °C
Pre-emergence herbicidal damage score, ABUTH [2]: 4
Pre-emergence herbicidal damage score, ALOMY [2]: 3
Pre-emergence herbicidal damage score, AMARE [2]: 5
Pre-emergence herbicidal damage score, ECHCG [2]: 5
Pre-emergence herbicidal damage score, SETFA [2]: 5
Pre-emergence herbicidal damage score, ZEAMX [2]: 2

Structure (SMILES): COC1=C(C)CN(c2noc(C(C)(C)C)c2C#N)C1=O [D11, 5-tert-butyl-3-(4-methoxy-3-methyl-5-oxo-2H-pyrrol-1-yl)isoxazole-4-carbonitrile]
ABUTH (Abutilon theophrasti) damage score, application post-emergence [1]: 5
ALOMY (Alopecurus myosuroides) damage score, application post-emergence [1]: 5
AMARE (Amaranthus retroflexus) damage score, application post-emergence [1]: 5
ECHCG (Echinochloa crus-galli) damage score, application post-emergence [1]: 5
SETFA (Setaria faberi) damage score, application post-emergence [1]: 5
ZEAMX (Zea mays) damage score, application post-emergence [1]: 4
melting point: 138 to 140 °C
Pre-emergence herbicidal damage score, ABUTH [2]: 4
Pre-emergence herbicidal damage score, ALOMY [2]: 4
Pre-emergence herbicidal damage score, AMARE [2]: 5
Pre-emergence herbicidal damage score, ECHCG [2]: 5
Pre-emergence herbicidal damage score, SETFA [2]: 5
Pre-emergence herbicidal damage score, ZEAMX [2]: 3

Structure (SMILES): COC1=C(C)CN(c2cc(C(C)(C)C#N)on2)C1=O [D12]
ABUTH (Abutilon theophrasti) damage score, application post-emergence [1]: 4
ALOMY (Alopecurus myosuroides) damage score, application post-emergence [1]: 4
AMARE (Amaranthus retroflexus) damage score, application post-emergence [1]: 5
ECHCG (Echinochloa crus-galli) damage score, application post-emergence [1]: 5
SETFA (Setaria faberi) damage score, application post-emergence [1]: 5
ZEAMX (Zea mays) damage score, application post-emergence [1]: 2
melting point: 103 to 105 °C
Pre-emergence herbicidal damage score, ABUTH [2]: 5
Pre-emergence herbicidal damage score, ALOMY [2]: 4
Pre-emergence herbicidal damage score, AMARE [2]: 5
Pre-emergence herbicidal damage score, ECHCG [2]: 5
Pre-emergence herbicidal damage score, SETFA [2]: 4
Pre-emergence herbicidal damage score, ZEAMX [2]: 2

Structure (SMILES): CCC(C)(C)c1onc(N2CC(C)=C(OC)C2=O)c1C#N [D13]
ABUTH (Abutilon theophrasti) damage score, application post-emergence [1]: 4
ALOMY (Alopecurus myosuroides) damage score, application post-emergence [1]: 5
AMARE (Amaranthus retroflexus) damage score, application post-emergence [1]: 5
ECHCG (Echinochloa crus-galli) damage score, application post-emergence [1]: 5
SETFA (Setaria faberi) damage score, application post-emergence [1]: 5
ZEAMX (Zea mays) damage score, application post-emergence [1]: 2
melting point: 72 to 74 °C
Pre-emergence herbicidal damage score, ABUTH [2]: 2
Pre-emergence herbicidal damage score, ALOMY [2]: 2
Pre-emergence herbicidal damage score, AMARE [2]: 5
Pre-emergence herbicidal damage score, ECHCG [2]: 4
Pre-emergence herbicidal damage score, SETFA [2]: 2
Pre-emergence herbicidal damage score, ZEAMX [2]: 2

Further lines, with some results ahead:

melting point: 123 to 133 °C
Structure (SMILES): COC1=C(Cl)C(O)N(c2cc(C(C)(C)C)on2)C1=O (stereo not shown) [E1, 1-(5-tert-butylisoxazol-3-yl)-3-chloro-2-hydroxy-4-methoxy-2H-pyrol-5-one]
ABUTH (Abutilon theophrasti) damage score, application post-emergence [1]: 5
ALOMY (Alopecurus myosuroides) damage score, application post-emergence [1]: 3
AMARE (Amaranthus retroflexus) damage score, application post-emergence [1]: 5
ECHCG (Echinochloa crus-galli) damage score, application post-emergence [1]: 5
SETFA (Setaria faberi) damage score, application post-emergence [1]: 5
ZEAMX (Zea mays) damage score, application post-emergence [1]: 0
Pre-emergence herbicidal damage score, ABUTH [2]: 4
Pre-emergence herbicidal damage score, ALOMY [2]: 2
Pre-emergence herbicidal damage score, AMARE [2]: 5
Pre-emergence herbicidal damage score, ECHCG [2]: 3
Pre-emergence herbicidal damage score, SETFA [2]: 3
Pre-emergence herbicidal damage score, ZEAMX [2]: 2

melting point: 101 to 107 °C
Structure (SMILES): COC1=C(Cl)C(OC(C)=O)N(c2cc(C(C)(C)C)on2)C1=O (stereo not shown) [E2, [1-(5-tert-butylisoxazol-3-yl)-3-chloro-4-methoxy-5-oxo-2H-pyrrol-2-yl]acetate]
ABUTH (Abutilon theophrasti) damage score, application post-emergence [1]: 5
ALOMY (Alopecurus myosuroides) damage score, application post-emergence [1]: 3
AMARE (Amaranthus retroflexus) damage score, application post-emergence [1]: 5
ECHCG (Echinochloa crus-galli) damage score, application post-emergence [1]: 5
SETFA (Setaria faberi) damage score, application post-emergence [1]: 5
ZEAMX (Zea mays) damage score, application post-emergence [1]: 0
Pre-emergence herbicidal damage score, ABUTH [2]: 5
Pre-emergence herbicidal damage score, ALOMY [2]: 3
Pre-emergence herbicidal damage score, AMARE [2]: 5
Pre-emergence herbicidal damage score, ECHCG [2]: 4
Pre-emergence herbicidal damage score, SETFA [2]: 3
Pre-emergence herbicidal damage score, ZEAMX [2]: 1

melting point: 94 to 106 °C
Structure (SMILES): COC1=C(Cl)CN(c2cc(C(C)(C)C)on2)C1=O [E3]
ABUTH (Abutilon theophrasti) damage score, application post-emergence [1]: 1
ALOMY (Alopecurus myosuroides) damage score, application post-emergence [1]: 0
AMARE (Amaranthus retroflexus) damage score, application post-emergence [1]: 2
ECHCG (Echinochloa crus-galli) damage score, application post-emergence [1]: 2
SETFA (Setaria faberi) damage score, application post-emergence [1]: 4
ZEAMX (Zea mays) damage score, application post-emergence [1]: 0
Pre-emergence herbicidal damage score, ABUTH [2]: 2
Pre-emergence herbicidal damage score, ALOMY [2]: 1
Pre-emergence herbicidal damage score, AMARE [2]: 5
Pre-emergence herbicidal damage score, ECHCG [2]: 3
Pre-emergence herbicidal damage score, SETFA [2]: 3
Pre-emergence herbicidal damage score, ZEAMX [2]: 1

melting point: 133 to 135 °C
Structure (SMILES): COC1=C(C)C(=O)N(c2noc(C(C)C)c2C#N)C1O (stereo not shown) [G4]
ABUTH (Abutilon theophrasti) damage score, application post-emergence [1]: 5
ALOMY (Alopecurus myosuroides) damage score, application post-emergence [1]: 5
AMARE (Amaranthus retroflexus) damage score, application post-emergence [1]: 5
ECHCG (Echinochloa crus-galli) damage score, application post-emergence [1]: 5
SETFA (Setaria faberi) damage score, application post-emergence [1]: 5
ZEAMX (Zea mays) damage score, application post-emergence [1]: 4
Pre-emergence herbicidal damage score, ABUTH [2]: 4
Pre-emergence herbicidal damage score, ALOMY [2]: 3
Pre-emergence herbicidal damage score, AMARE [2]: 5
Pre-emergence herbicidal damage score, ECHCG [2]: 5
Pre-emergence herbicidal damage score, SETFA [2]: 5
Pre-emergence herbicidal damage score, ZEAMX [2]: 2
